Laboratory results as given in ChEMBL document CHEMBL1153803, “Parallel synthesis of chiral pentaamines and pyrrolidine containing bis-heterocyclic libraries. Multiple scaffolds with multiple building blocks: a double diversity for the identification of new antitubercular compounds” (Bioorg Med Chem Lett, 2009).
Converted amounts (≈) assume the structure as drawn.

Tests used:
[1] = Selective index, the ratio of IC50 in the african green monkey Vero cells to the MIC to Mycobacterium tuberculosis H37Rv ATCC 27294; type: functional
[2] = test system: Mycobacterium tuberculosis; experiment: Antimicrobial activity against Mycobacterium tuberculosis H37Rv ATCC 27294 at 6.25 ug/mL by broth microdilution assay; type: functional
Vero = experiment: Cytotoxicity against african green monkey Vero cells at after 72 hrs by MTT assay; type: cell-based, Chlorocebus sabaeus
[3] = test system: Mycobacterium tuberculosis; experiment: Antimicrobial activity against Mycobacterium tuberculosis H37Rv ATCC 27294 by microplate Almar blue assay; type: functional
[4] = Chlorocebus sabaeus, Vero, 72 h, read-out: IC50
[5] = Mycobacterium tuberculosis, H37Rv ATCC 27294, read-out: MIC

Compound | Selectivity Index [1] | inhibition at 6.25 µg/mL [2] [%] | IC50 (Vero; [4]) [µg/mL] | IC50 (Vero; vero) [µg/mL] | MIC [3] [µg/mL] | MIC [3, 5] [µg/mL]
CC1CCC(CN2CCN([C@@H](Cc3ccccc3)CN3CCCC3CN3CCNC[C@@H]3Cc3ccccc3)C[C@@H]2Cc2ccccc2)CC1 (some centres not stated) | 0.21 | 99 | 1.39 (≈ 2.1 µM) | 0.82 (≈ 1.24 µM) | 3.9 (≈ 5.89 µM) | 6.25 (≈ 9.44 µM)
c1ccc(C[C@H]2CNCCN2CC2CCCN2C[C@H](Cc2ccccc2)N2CCN(CC34CC5CC(CC(C5)C3)C4)[C@@H](Cc3ccccc3)C2)cc1 (some centres not stated) | 0.49 | 97 | 0.97 (≈ 1.39 µM) | – | – | 2 (≈ 2.86 µM)
CC(C)C[C@@H](CN1CCCC1CN1CCNC[C@@H]1Cc1ccccc1)N1CCN(CCc2ccccc2)[C@@H](Cc2ccccc2)C1 (some centres not stated) | 0.25 | 100 | 0.99 (≈ 1.59 µM) | – | – | 3.9 (≈ 6.27 µM)
CCC(C)CN1C(=N)N([C@@H](Cc2ccccc2)CN2CCCC2CN2C(=N)NC[C@@H]2Cc2ccccc2)C[C@@H]1Cc1ccccc1 (some centres not stated) | 4.7 | 90 | 36.8 (≈ 59.3 µM) | – | – | 7.8 (≈ 12.6 µM)
COc1ccc(CCN2CCN([C@@H](Cc3ccccc3)CN3CCCC3CN3CCNC[C@@H]3Cc3ccccc3)C[C@@H]2Cc2ccccc2)cc1 (some centres not stated) | 0.08 | 99 | 0.33 (≈ 0.481 µM) | – | – | 3.9 (≈ 5.69 µM)
c1ccc(CCN2CCN([C@@H](CC3CCCCC3)CN3CCCC3CN3CCNC[C@@H]3Cc3ccccc3)C[C@@H]2Cc2ccccc2)cc1 (some centres not stated) | 0.5 | 100 | 0.99 (≈ 1.5 µM) | – | – | 2 (≈ 3.02 µM)
c1ccc(C[C@H]2CNCCN2CC2CCCN2C[C@H](Cc2ccccc2)N2CCN(CCc3ccc(-c4ccccc4)cc3)[C@@H](Cc3ccccc3)C2)cc1 (some centres not stated) | 0.26 | 97 | 1 (≈ 1.37 µM) | – | – | 3.9 (≈ 5.33 µM)
c1ccc(C[C@H]2CNCCN2CC2CCCN2C[C@H](Cc2ccccc2)N2CCN(CCCC3CCCCC3)[C@@H](Cc3ccccc3)C2)cc1 (some centres not stated) | 0.47 | 99 | 0.94 (≈ 1.39 µM) | – | – | 2 (≈ 2.96 µM)
c1ccc(C[C@H]2CNCCN2CC2CCCN2C[C@H](Cc2ccccc2)N2CCN(CCC3CC4CCC3C4)[C@@H](Cc3ccccc3)C2)cc1 (some centres not stated) | 0.22 | 97 | 0.87 (≈ 1.29 µM) | – | – | 3.9 (≈ 5.79 µM)
N=C1NC[C@H](Cc2ccccc2)N1CC1CCCN1C[C@H](Cc1ccccc1)N1C[C@H](Cc2ccccc2)N(CCC2CC3CCC2C3)C1=N (some centres not stated) | 1.98 | 94 | 15.5 (≈ 23 µM) | – | – | 7.8 (≈ 11.6 µM)
c1ccc(CCN2CCN([C@@H](Cc3ccccc3)CN3CCCC3CN3CCNC[C@@H]3Cc3ccccc3)C[C@H]2CC2CCCCC2)cc1 (some centres not stated) | 0.25 | 98 | 0.97 (≈ 1.47 µM) | – | – | 3.9 (≈ 5.89 µM)
Clc1ccc(CCN2CCN([C@@H](Cc3ccccc3)CN3CCCC3CN3CCNC[C@@H]3Cc3ccccc3)C[C@@H]2Cc2ccccc2)cc1Cl (some centres not stated) | 0.27 | 99 | 1.07 (≈ 1.48 µM) | – | – | 3.9 (≈ 5.38 µM)
N=C1NC[C@H](Cc2ccccc2)N1CC1CCCN1C[C@H](Cc1ccccc1)N1C[C@H](Cc2ccccc2)N(CCCCC2CCCCC2)C1=N (some centres not stated) | 3.7 | 91 | 14.3 (≈ 20.8 µM) | – | – | 3.9 (≈ 5.67 µM)
c1ccc(C[C@H]2CNCCN2CC2CCCN2C[C@H](Cc2ccccc2)N2CCN(CC3(c4ccccc4)CC3)[C@@H](Cc3ccccc3)C2)cc1 (some centres not stated) | 0.24 | 99 | 0.94 (≈ 1.38 µM) | – | – | 3.9 (≈ 5.72 µM)
Fc1cccc(CCN2CCN([C@@H](Cc3ccccc3)CN3CCCC3CN3CCNC[C@@H]3Cc3ccccc3)C[C@@H]2Cc2ccccc2)c1 (some centres not stated) | 0.21 | 98 | 0.8 (≈ 1.19 µM) | – | – | 3.9 (≈ 5.79 µM)
c1ccc(CCN2CCN([C@@H](Cc3ccccc3)CN3CCCC3CN3CCNC[C@H]3Cc3ccccc3)C[C@@H]2Cc2ccccc2)cc1 (some centres not stated) | 0.22 | 99 | 0.86 (≈ 1.31 µM) | – | – | 3.9 (≈ 5.95 µM)
CCC(C)CN1CCN([C@@H](Cc2ccccc2)CN2CCCC2CN2CCNC[C@@H]2Cc2ccccc2)C[C@@H]1Cc1ccccc1 (some centres not stated) | 0.18 | 97 | 0.7 (≈ 1.13 µM) | – | – | 3.9 (≈ 6.27 µM)
Brc1cccc(CCCN2CCN([C@@H](Cc3ccccc3)CN3CCCC3CN3CCNC[C@@H]3Cc3ccccc3)C[C@@H]2Cc2ccccc2)c1 (some centres not stated) | 0.29 | 99 | 1.12 (≈ 1.5 µM) | – | – | 3.9 (≈ 5.21 µM)
c1ccc(C[C@H]2CNCCN2CC2CCCN2C[C@H](Cc2ccccc2)N2CCN(CC3CCCCC3)[C@@H](Cc3ccccc3)C2)cc1 (some centres not stated) | 0.18 | 100 | 0.71 (≈ 1.1 µM) | – | – | 3.9 (≈ 6.02 µM)
COc1cccc(CCN2CCN([C@@H](Cc3ccccc3)CN3CCCC3CN3CCNC[C@@H]3Cc3ccccc3)C[C@@H]2Cc2ccccc2)c1 (some centres not stated) | 0.08 | 99 | 0.32 (≈ 0.466 µM) | – | – | 3.9 (≈ 5.69 µM)
